Data as given in patent publication US20260285850A1, “SUBSTITUTED OXAZOLIDINONES AND IMIDAZOLINONES AS HERBICIDES” (FMC CORPORATION, priority 2023, published 2026).

Tests used:
Type in all cases: in vivo
rice (Oryza sativa) = test: Test B flooded paddy test, visual plant response rating 0-100; settings: 250 g ai/ha, Flood, applied to paddy water, evaluated after 13 days
Procedure, shortened: (§1)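 Plants were grown to the 2-leaf stage, then pots were flooded to 3 cm above the soil and compound was applied directly to the paddy water, with that depth kept throughout.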

[1] = tested on: barnyardgrass (Echinochloa crusgalli); test: as above; settings: 250 g ai/ha, Flood, applied to paddy water, evaluated after 13 days
Procedure, shortened: as §1

[2] = tested on: sedge, umbrella (small-flower umbrella sedge, Cyperus difformis); test: as above; settings: 250 g ai/ha, Flood, applied to paddy water, evaluated after 13 days
Procedure, shortened: as §1

[3] = tested on: ducksalad (Heteranthera limosa); test: as above; settings: 250 g ai/ha, Flood, applied to paddy water, evaluated after 13 days
Procedure, shortened: as §1

[4] = tested on: wheat (Triticum aestivum); test: Test A postemergence application, visual injury rating 0-100; settings: 10 days
Procedure, shortened: (§2)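 Visual injury ratings (0, no effect; 100, complete control) were assigned relative to untreated plants 10 days after treatment. Test chemicals, formulated with a surfactant-containing non-phytotoxic solvent, were applied in loam-sand soil either as a directed soil spray before emergence or to emerged plants, and plants were kept in a greenhouse.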

[5] = tested on: green foxtail (Setaria viridis); test: as above; settings: 10 days
Procedure, shortened: as §2

soybean (Glycine max) [6] = test: as above; settings: 10 days
Procedure, shortened: as §2

[7] = tested on: barnyardgrass (Echinochloa crus-galli); test: as above; settings: 10 days
Procedure, shortened: as §2

[8] = tested on: horseweed (Erigeron canadensis); test: as above; settings: 10 days
Procedure, shortened: as §2

[9] = tested on: ragweed (common ragweed, Ambrosia artemisiifolia); test: as above; settings: 10 days
Procedure, shortened: as §2

[10] = tested on: galium (catchweed bedstraw, Galium aparine); test: as above; settings: 10 days
Procedure, shortened: as §2

[11] = tested on: oat, wild (wild oat, Avena fatua); test: as above; settings: 10 days
Procedure, shortened: as §2

[12] = tested on: blackgrass (Alopecurus myosuroides); test: as above; settings: 10 days
Procedure, shortened: as §2

[13] = tested on: palmer (palmer amaranth, palmer pigweed, Amaranthus palmeri); test: as above; settings: 10 days
Procedure, shortened: as §2

[14] = tested on: ryegrass, Italian (italian ryegrass, Lolium multiflorum); test: as above; settings: 10 days
Procedure, shortened: as §2

corn (Zea mays) [15] = test: as above; settings: 10 days
Procedure, shortened: as §2

kochia (Bassia scoparia) [16] = test: as above; settings: 10 days
Procedure, shortened: as §2

[17] = tested on: wheat (Triticum aestivum); test: Test A preemergence soil spray, visual injury rating 0-100; settings: 10 days, 0 = no effect, 100 = complete control
Procedure, shortened: as §2

[18] = tested on: green foxtail (Setaria viridis); test: as above; settings: 10 days, 0 = no effect, 100 = complete control
Procedure, shortened: as §2

soybean (Glycine max) [19] = test: as above; settings: 10 days, 0 = no effect, 100 = complete control
Procedure, shortened: as §2

[20] = tested on: barnyardgrass (Echinochloa crus-galli); test: as above; settings: 10 days, 0 = no effect, 100 = complete control
Procedure, shortened: as §2

[21] = tested on: ragweed (common ragweed, Ambrosia artemisiifolia); test: as above; settings: 10 days, 0 = no effect, 100 = complete control
Procedure, shortened: as §2

[22] = tested on: oat, wild (wild oat, Avena fatua); test: as above; settings: 10 days, 0 = no effect, 100 = complete control
Procedure, shortened: as §2

[23] = tested on: blackgrass (Alopecurus myosuroides); test: as above; settings: 10 days, 0 = no effect, 100 = complete control
Procedure, shortened: as §2

[24] = tested on: palmer (palmer amaranth, palmer pigweed, Amaranthus palmeri); test: as above; settings: 10 days, 0 = no effect, 100 = complete control
Procedure, shortened: as §2

corn (Zea mays) [25] = test: as above; settings: 10 days, 0 = no effect, 100 = complete control
Procedure, shortened: as §2

kochia (Bassia scoparia) [26] = test: as above; settings: 10 days, 0 = no effect, 100 = complete control
Procedure, shortened: as §2

[27] = 31 g ai/ha, postemergence, 0 = no effect, 100 = complete control
[28] = Postemergence, 125 g ai/ha, 0 is no effect, 100 is complete control

SMILES: CC(C)OC(=O)C1=CCC(NC(=O)C2(C)CN(c3cc(F)cc(F)c3)C(=O)O2)C1 (centres unmarked) [Compound 5]
- Plant response rating, Rice (0 to 100 scale, 0 is no effect and 100 is complete control) (rice (Oryza sativa)): 20
- Plant response rating, Barnyardgrass (0 to 100 scale, 0 is no effect and 100 is complete control) [1]: 65
- Plant response rating, Sedge, Umbrella (0 to 100 scale, 0 is no effect and 100 is complete control) [2]: 95
- Plant response rating, Ducksalad (0 to 100 scale, 0 is no effect and 100 is complete control) [3]: 80
- Wheat plant response rating (0-100) [4, 27]: 90
- Wheat plant response rating (0 to 100 scale) [4, 28]: 90
- Foxtail, Green plant response rating (0-100) [5, 27]: 30
- Foxtail, Green plant response rating (0 to 100 scale) [5, 28]: 90
- Soybean plant response rating (0-100) (soybean (Glycine max) [6]; [27]): 60
- Soybean plant response rating (0 to 100 scale) (soybean (Glycine max) [6]; [28]): 70
- Barnyardgrass plant response rating (0-100) [7, 27]: 100
- Barnyardgrass plant response rating (0 to 100 scale) [7, 28]: 100
- Horseweed plant response rating (0-100) [8, 27]: 10
- Horseweed plant response rating (0 to 100 scale) [8, 28]: 50
- Ragweed plant response rating (0-100) [9, 27]: 50
- Ragweed plant response rating (0 to 100 scale) [9, 28]: 70
- Galium plant response rating (0-100) [10, 27]: 80
- Galium plant response rating (0 to 100 scale) [10, 28]: 80
- Oat, Wild plant response rating (0-100) [11, 27]: 90
- Oat, Wild plant response rating (0 to 100 scale) [11, 28]: 90
- Blackgrass plant response rating (0-100) [12, 27]: 50
- Blackgrass plant response rating (0 to 100 scale) [12, 28]: 90
- Amaranth, Palmer plant response rating (0-100) [13, 27]: 40
- Amaranth, Palmer / Pigweed, Palmer plant response rating (0 to 100 scale) [13, 28]: 50
- Ryegrass, Italian plant response rating (0-100) [14, 27]: 60
- Ryegrass, Italian plant response rating (0 to 100 scale) [14, 28]: 90
- Corn plant response rating (0-100) (corn (Zea mays) [15]; [27]): 60
- Corn plant response rating (0 to 100 scale) (corn (Zea mays) [15]; [28]): 100
- Kochia plant response rating (0-100) (kochia (Bassia scoparia) [16]; [27]): 30
- Kochia plant response rating (0 to 100 scale) (kochia (Bassia scoparia) [16]; [28]): 80
- Wheat plant response rating (0-100) ([17]; 31 g ai/ha): 0
- Wheat plant response rating (0 to 100 scale) ([17]; 125 g ai/ha): 80
- Foxtail, Green plant response rating (0-100) ([18]; 31 g ai/ha): 20
- Foxtail, Green plant response rating (0 to 100 scale) ([18]; 125 g ai/ha): 100
- Soybean plant response rating (0-100) (soybean (Glycine max) [19]; 31 g ai/ha): 0
- Soybean plant response rating (0 to 100 scale) (soybean (Glycine max) [19]; 125 g ai/ha): 60
- Barnyardgrass plant response rating (0-100) ([20]; 31 g ai/ha): 0
- Barnyardgrass plant response rating (0 to 100 scale) ([20]; 125 g ai/ha): 100
- Ragweed plant response rating (0-100) ([21]; 31 g ai/ha): 0
- Ragweed plant response rating (0 to 100 scale) ([21]; 125 g ai/ha): 0
- Oat, Wild plant response rating (0-100) ([22]; 31 g ai/ha): 20
- Oat, Wild plant response rating (0 to 100 scale) ([22]; 125 g ai/ha): 90
- Blackgrass plant response rating (0-100) ([23]; 31 g ai/ha): 30
- Blackgrass plant response rating (0 to 100 scale) ([23]; 125 g ai/ha): 40
- Amaranth, Palmer plant response rating (0-100) ([24]; 31 g ai/ha): 20
- Amaranth, Palmer plant response rating (0 to 100 scale) ([24]; 125 g ai/ha): 100
- Corn plant response rating (0-100) (corn (Zea mays) [25]; 31 g ai/ha): 0
- Corn plant response rating (0 to 100 scale) (corn (Zea mays) [25]; 125 g ai/ha): 50
- Kochia plant response rating (0-100) (kochia (Bassia scoparia) [26]; 31 g ai/ha): 0
- Kochia plant response rating (0 to 100 scale) (kochia (Bassia scoparia) [26]; 125 g ai/ha): 90
